One test has as its target FGFR1(h) (Homo sapiens, UniProt P11362). In words: Kinase assay, FGFR1(h). Type of test: biochemical. As to conditions: 1 μM. As to the method: (§1) Kinase assay protocols well known to those of ordinary skill in the art were used. Specifically, the buffer composition was as follows: 20 mM MOPS, 1 mM EDTA, 0.01% Brij-35, 5% Glycerol, 0.1% β-mercaptoethanol, 1 mg/mL BSA. Test compounds were initially dissolved in DMSO at the desired concentration, then serially diluted to the kinase assay buffer. In a final reaction volume of 25 μL FGFR1(h) (5-10 mU) and KDR(h) (5-10 mU) are incubated with 8 mM MOPS pH 7.0, 0.2 mM EDTA, 200 μM LRRASLG (Kemptide), 10 mM magnesium acetate and [γ^33P-ATP]. The reaction was initiated by the addition of the MgATP mix. After incubation for 40 minutes at room temperature, the reaction was stopped by addition of 5 μL of a 3% phosphoric acid solution. Ten L of the reaction was then spotted onto a P30 filter mat and washed three times for 5 minutes in 50 mM phosphoric acid and once in methanol prior to drying and scintillation counting. Wells containing substrate but no kinase and wells containing a phosphopeptide control were used to set 0% and 100% phosphorylation value, respectively.
(§2) Of all of the steps in developing a drug, the hardest is finding promising compounds. (See, e.g., Malo et al., “Statistical practice in high-throughput screening data analysis,” Nature Biotechnology, 2006, 24, 167-75.) Kinase inhibitors often also have an anti-proliferative effect. […] The kinase inhibitory activity Compound 19 was tested using the kinase assay described in Example 3. […] These mutations in the tested kinases are thought to play an important role in transformation of some cancers.

For the next test, the target named is KDR(h) (Homo sapiens, UniProt P35968). The test is described as follows: Kinase assay, KDR(h). In kind it is biochemical. The protocol:
as §1, §2

The subject of the next test is KG1a. In words: Inhibition of proliferation (CellTiterblue, 72 hr), KG1a. Type of test: cell-based, human. As to conditions: Homo sapiens, KG-1a; 72 hr. The protocol:
A number of studies were performed to analyze the consequences of tyrosine kinase inhibition in cell lines. To do this, 1000 cells are seeded in 27 μl/well in 384-well microplates, which are then placed in a humidified CO2 incubator at 37° C. overnight. The next day, 3 μl/well of 10× concentrated drug is added and the plates are returned to the incubator for 72 hr. After 72 hr incubation, plates are removed and 6 μl/well CellTiterblue (Promega) viability reagent is added. Plates are returned to the incubator for 3 hrs, after which fluorescence measurements are read on the Victor X3 plate reader (Perkin Elmer). Data are analyzed using Excel (Microsoft), and GI50 values are determined using Prism (Graphpad).
For orientation: Resazurin is reduced to fluorescent resorufin, in cell work by metabolically active cells.

FGFR1(h), sequence (P11362 22-822): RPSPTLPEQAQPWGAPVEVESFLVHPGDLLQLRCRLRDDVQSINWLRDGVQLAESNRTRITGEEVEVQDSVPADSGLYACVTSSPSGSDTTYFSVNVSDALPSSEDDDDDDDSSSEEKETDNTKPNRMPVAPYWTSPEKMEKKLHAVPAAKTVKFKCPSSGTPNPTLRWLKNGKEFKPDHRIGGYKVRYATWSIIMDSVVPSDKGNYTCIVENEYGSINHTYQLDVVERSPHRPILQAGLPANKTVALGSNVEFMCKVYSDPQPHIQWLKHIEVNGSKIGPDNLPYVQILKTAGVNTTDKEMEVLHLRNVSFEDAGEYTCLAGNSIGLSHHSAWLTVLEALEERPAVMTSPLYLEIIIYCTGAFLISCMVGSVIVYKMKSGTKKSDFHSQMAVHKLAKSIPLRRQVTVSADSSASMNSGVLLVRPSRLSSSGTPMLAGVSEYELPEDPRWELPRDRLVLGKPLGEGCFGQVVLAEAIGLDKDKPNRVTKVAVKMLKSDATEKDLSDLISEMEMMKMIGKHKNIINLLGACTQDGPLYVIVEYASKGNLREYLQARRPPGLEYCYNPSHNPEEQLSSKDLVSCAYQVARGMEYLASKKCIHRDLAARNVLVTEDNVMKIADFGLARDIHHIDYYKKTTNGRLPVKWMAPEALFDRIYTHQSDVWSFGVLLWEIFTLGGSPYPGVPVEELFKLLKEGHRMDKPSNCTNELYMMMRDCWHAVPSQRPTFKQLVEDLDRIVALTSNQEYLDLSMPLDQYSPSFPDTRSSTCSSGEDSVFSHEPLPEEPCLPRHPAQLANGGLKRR
KDR(h), sequence (P35968 20-1356): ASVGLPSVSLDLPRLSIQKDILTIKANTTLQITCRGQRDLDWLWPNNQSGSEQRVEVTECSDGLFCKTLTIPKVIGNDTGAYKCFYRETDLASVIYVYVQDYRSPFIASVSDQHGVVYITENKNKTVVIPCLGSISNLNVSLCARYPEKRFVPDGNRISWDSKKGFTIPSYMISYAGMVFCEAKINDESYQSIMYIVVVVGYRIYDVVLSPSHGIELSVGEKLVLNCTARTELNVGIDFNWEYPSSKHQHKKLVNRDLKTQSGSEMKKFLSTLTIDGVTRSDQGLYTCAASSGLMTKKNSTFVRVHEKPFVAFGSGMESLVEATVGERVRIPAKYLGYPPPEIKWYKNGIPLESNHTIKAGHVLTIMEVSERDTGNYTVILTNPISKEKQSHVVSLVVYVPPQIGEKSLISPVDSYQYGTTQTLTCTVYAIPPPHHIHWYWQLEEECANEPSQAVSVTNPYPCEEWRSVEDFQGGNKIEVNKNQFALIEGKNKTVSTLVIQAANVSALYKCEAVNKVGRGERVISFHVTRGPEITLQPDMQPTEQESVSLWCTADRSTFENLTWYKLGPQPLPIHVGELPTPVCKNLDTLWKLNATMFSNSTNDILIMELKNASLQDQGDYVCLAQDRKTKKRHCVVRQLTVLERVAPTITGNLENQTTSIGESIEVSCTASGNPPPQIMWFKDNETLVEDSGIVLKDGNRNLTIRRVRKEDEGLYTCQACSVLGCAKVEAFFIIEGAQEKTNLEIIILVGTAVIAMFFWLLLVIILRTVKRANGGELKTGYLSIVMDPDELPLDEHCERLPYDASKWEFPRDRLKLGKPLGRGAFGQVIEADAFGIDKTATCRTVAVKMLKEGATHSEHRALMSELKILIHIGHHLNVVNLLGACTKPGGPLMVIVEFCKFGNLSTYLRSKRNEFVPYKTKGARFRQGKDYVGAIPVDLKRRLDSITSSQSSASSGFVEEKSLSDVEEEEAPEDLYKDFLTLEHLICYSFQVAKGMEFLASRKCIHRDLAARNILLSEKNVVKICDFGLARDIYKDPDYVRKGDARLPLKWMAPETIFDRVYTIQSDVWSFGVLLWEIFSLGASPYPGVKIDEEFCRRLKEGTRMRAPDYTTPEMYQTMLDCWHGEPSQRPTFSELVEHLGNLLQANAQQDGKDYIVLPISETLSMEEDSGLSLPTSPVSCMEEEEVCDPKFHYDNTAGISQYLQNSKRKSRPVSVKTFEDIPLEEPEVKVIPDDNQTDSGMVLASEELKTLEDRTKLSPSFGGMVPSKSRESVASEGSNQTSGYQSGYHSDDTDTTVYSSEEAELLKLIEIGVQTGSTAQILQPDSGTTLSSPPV

For orientation: inhibition means the drop in the measured response relative to a control, in per cent. Usually GI50 stands for the concentration giving 50% growth inhibition. A high value points to less potent growth inhibition. In the case of `Cc1cc2c(F)c(Oc3ncnc(Nc4ccc(N5CCCC5=O)cc4)c3C#N)cc(F)c2[nH]1` [Compound 41], the inhibition at 1 µM against FGFR1(h) turned out to be 101%; at KDR(h), 96%. Also, in the test with KG1a, the 50% growth inhibitory concentration (GI50) came out at 180 nM.
For `CCN1CCN(c2cccc(Nc3ncnc(Oc4ccc5[nH]c(C)cc5c4F)c3C#N)c2)CC1` [Compound 22], in that order: 100%, 96% and 196 nM.
With `Cc1cc2c(F)c(Oc3ncnc(Nc4ccc(-n5ccnc5)cc4)c3C#N)ccc2[nH]1` [Compound 12], the inhibition at 1 µM was determined as 56% against FGFR1(h) and 67% at KDR(h).
Take `Cc1cc2c(F)c(Oc3ncnc(Nc4ccc5[nH]ccc5c4)c3C#N)cc(F)c2[nH]1` [Compound 42]: the results for the inhibition at 1 µM at FGFR1(h) and at KDR(h) were 101% and 96%, respectively. This compound displayed a concentration for 50% growth inhibition (GI50) with KG1a of 35 nM.
For `Cc1cc2c(F)c(Oc3ncnc(Nc4ccc(N5CCN(C)CC5)c(F)c4)c3C#N)ccc2[nH]1` [Compound 2], in that order: 100%, 96% and 62 nM.
Turning to `Cc1cc2c(F)c(Oc3ncnc(Nc4ccc(N5CCNC(=O)C5)cc4)c3C#N)ccc2[nH]1` [Compound 27], the values for the inhibition at 1 µM at FGFR1(h) and against KDR(h) were 99% and 97%, respectively.
For `Cc1cc2c(F)c(Oc3ncnc(Nc4ccc(C(=O)N5CCN(C)CC5)cc4)c3C#N)ccc2[nH]1` [Compound 6], in that order: 85% and 95%.
For `Cc1cc2c(F)c(Oc3ncnc(Nc4cccc(N5CCOCC5)c4)c3C#N)ccc2[nH]1` [Compound 21], in that order: 100% and 96%.
Consider `CC(=O)N(C)c1ccc(Nc2ncnc(Oc3cc(F)c4[nH]c(C)cc4c3F)c2C#N)cc1` [Compound 32], for which the inhibition at 1 µM turned out to be 92% against FGFR1(h) and 69% against KDR(h).
For the compound `CCC(=O)Nc1cccc(Nc2ncnc(Oc3cc(F)c4[nH]c(C)cc4c3F)c2C#N)c1` [Compound 52], the inhibition at 1 µM on FGFR1(h) was determined as 101%; against KDR(h), 91%. This compound displayed a GI50 with KG1a of 174 nM.
Consider `Cc1cc2c(F)c(Oc3ncnc(Nc4ccc(C(=O)N(C)C)cc4)c3C#N)cc(F)c2[nH]1` [Compound 38], for which the inhibition at 1 µM against FGFR1(h) is 90%; against KDR(h) it was 73%.
For the compound `CCN1CCN(c2ccc(Nc3ncnc(Oc4ccc5[nH]c(C)cc5c4F)c3C(F)F)cc2)CC1` [Compound 5], the results for the inhibition at 1 µM against FGFR1(h) and against KDR(h) were 26% and 9%, respectively.
For `Cc1cc2c(F)c(Oc3ncnc(Nc4ccc(N5CCN(CC(F)(F)F)CC5)cc4)c3C#N)ccc2[nH]1` [Compound 18], in that order: 76% and 92%.
`CC(=O)Nc1ccc(Nc2ncnc(Oc3ccc4[nH]c(C)cc4c3F)c2C#N)cc1` [Compound 25, N-(4-((5-cyano-6-((4-fluoro-2-methyl-1H-indol-5-yl)oxy)pyrimidin-4-yl)amino)phenyl)acetamide]: the inhibition at 1 µM against FGFR1(h) came out at 99%; at KDR(h), 96%. Further, the GI50 with KG1a amounted to 30 nM.
Take `Cc1cc2c(F)c(Oc3ncnc(Nc4ccc(N5CCN(CC(F)(F)F)CC5)cc4)c3C#N)cc(F)c2[nH]1` [Compound 20]: the values for the inhibition at 1 µM against FGFR1(h) and on KDR(h) were 70% and 42%, respectively.
For `CNC(=O)c1ccc(Nc2ncnc(Oc3cc(F)c4[nH]c(C)cc4c3F)c2C#N)cc1` [Compound 37], in that order: 99% and 70%.
For `Cc1cc2c(F)c(Oc3ncnc(Nc4ccc(C#N)cc4)c3C#N)cc(F)c2[nH]1` [Compound 55], in that order: 55% and 6%.
For `Cc1cc2c(F)c(Oc3ncnc(Nc4ccc(CN5CCNCC5)cc4)c3C#N)ccc2[nH]1` [Compound 10], in that order: 34% and 23%.
For the compound `Cc1cc2c(F)c(Oc3ncnc(Nc4ccc([N+](=O)[O-])cc4)c3C#N)cc(F)c2[nH]1` [Compound 44], the figures for the inhibition at 1 µM on FGFR1(h) and against KDR(h) were 41% and 14%, respectively.
Turning to `Cc1cc2c(F)c(Oc3ncnc(Nc4ccc(N5CCC(N(C)C)CC5)cc4)c3C#N)ccc2[nH]1` [Compound 11], the inhibition at 1 µM came out at 100% at FGFR1(h) and 96% at KDR(h). Moreover, halving of growth with KG1a (GI50) required 25 nM.
As to `Cc1cc2c(F)c(Oc3ncnc(Nc4ccc(F)cc4)c3C#N)cc(F)c2[nH]1` [Compound 39], the inhibition at 1 µM came out at 91% against FGFR1(h) and 36% against KDR(h).
For `Cc1cc2c(F)c(Oc3ncnc(Nc4ccc(N5CCCCC5)cc4)c3C#N)ccc2[nH]1` [Compound 24], the figures for the inhibition at 1 µM on FGFR1(h) and at KDR(h) were 86% and 95%, respectively.
Regarding `CCOc1ccc(Nc2ncnc(Oc3ccc4[nH]c(C)cc4c3F)c2C#N)cc1` [Compound 29], the inhibition at 1 µM was 91% on FGFR1(h) and 95% against KDR(h).
As for `Cc1cc2c(F)c(Oc3ncnc(Nc4ccc(N5C[C@@H](C)N[C@@H](C)C5)c(F)c4)c3C#N)ccc2[nH]1` [Compound 16], the inhibition at 1 µM against FGFR1(h) came out at 100%; at KDR(h) it was 96%. The GI50 in the test on KG1a was found to be 15 nM.
With `Cc1cc2c(F)c(Oc3ncnc(Nc4ccc(Cl)cc4)c3C#N)cc(F)c2[nH]1` [Compound 40], the inhibition at 1 µM at FGFR1(h) was found to be 78%; on KDR(h), 20%.
Consider `Cc1cc2c(F)c(Oc3ncnc(Nc4ccc(NC(=O)C5CC5)cc4)c3C#N)cc(F)c2[nH]1` [Compound 35], for which the inhibition at 1 µM is 100% on FGFR1(h) and 95% on KDR(h). Further, the GI50 in the test with KG1a stood at 78 nM.
With `Cc1cc2c(F)c(Oc3ncnc(N4CCN(C)CC4)c3C#N)ccc2[nH]1` [Compound 3], the inhibition at 1 µM at FGFR1(h) is 1%; against KDR(h), 4%.
As for `COC(=O)c1ccc(Nc2ncnc(Oc3cc(F)c4[nH]c(C)cc4c3F)c2C#N)cc1` [Compound 54], the inhibition at 1 µM against FGFR1(h) was determined as 89%; against KDR(h) it was 17%.
For `Cc1cc2c(F)c(Oc3ncnc(Nc4ccc(C)c(S(N)(=O)=O)c4)c3C#N)ccc2[nH]1` [Compound 15], in that order: 94% and 96%.
Consider `Cc1cc2c(F)c(Oc3ncnc(Nc4ccc(C(N)=O)cc4)c3C#N)cc(F)c2[nH]1` [Compound 36], for which the inhibition at 1 µM against FGFR1(h) amounted to 99%; against KDR(h), 67%. Further, the GI50 in the test with KG1a stood at 182 nM.
For `Cc1cc2c(F)c(Oc3ncnc(Nc4ccccc4O)c3C#N)cc(F)c2[nH]1` [Compound 43], the inhibition at 1 µM is 97% on FGFR1(h) and 76% at KDR(h).
`Cc1cc2c(F)c(Oc3ncnc(Nc4ccc(N5CCCS5(=O)=O)cc4)c3C#N)ccc2[nH]1` [Compound 28]: the figures for the inhibition at 1 µM against FGFR1(h) and against KDR(h) were 99% and 96%, respectively. In the test on KG1a, this compound came in with a GI50 of 226 nM.
As to `Cc1cc2c(F)c(Oc3ncnc(Nc4ccc(C5CCNCC5)cc4)c3C#N)ccc2[nH]1` [Compound 30], the inhibition at 1 µM on FGFR1(h) came to 91%; against KDR(h), 94%.
In the case of `Cc1cc2c(F)c(Oc3ncnc(Nc4ccc(-n5ccnc5C)cc4)c3C#N)ccc2[nH]1` [Compound 13], the inhibition at 1 µM turned out to be 48% against FGFR1(h) and 85% against KDR(h).
Regarding `Cc1cc2c(F)c(Oc3ncnc(Nc4ccc(NS(C)(=O)=O)cc4)c3C#N)ccc2[nH]1` [Compound 26], the inhibition at 1 µM turned out to be 97% at FGFR1(h) and 96% on KDR(h).
Turning to `CCN1CCN(c2ccc(Nc3ncnc(Oc4ccc5[nH]c(C)cc5c4F)c3C#N)cc2F)CC1` [Compound 8], the figures for the inhibition at 1 µM on FGFR1(h) and at KDR(h) were 97% and 96%, respectively. The GI50 with KG1a amounted to 250 nM.
For `COc1cc(N2CCN(C)CC2)ccc1Nc1ncnc(Oc2ccc3[nH]c(C)cc3c2F)c1C#N` [Compound 1], in that order: 99%, 96% and 49 nM.
For `Cc1cc2c(F)c(Oc3ncnc(Nc4ccc(N5CCNCC5)c(F)c4)c3C#N)ccc2[nH]1` [Compound 9], in that order: 100%, 96% and 314 nM.
For `Cc1cc2c(F)c(Oc3ncnc(Nc4ccccc4)c3C#N)ccc2[nH]1` [Compound 23], the inhibition at 1 µM came out at 98% against FGFR1(h) and 96% on KDR(h).
Regarding `Cc1cc2c(F)c(Oc3ncnc(Nc4ccc(N5CCN(C)CC5)c(C(F)(F)F)c4)c3C#N)ccc2[nH]1` [Compound 7], the inhibition at 1 µM at FGFR1(h) amounted to 49%; on KDR(h) it was 94%.

(Values after patent US20180215734A1, “PYRIMIDINE DERIVATIVES AS KINASE INHIBITORS AND THEIR THERAPEUTICAL APPLICATIONS” (NantBioScience, Inc., priority 2016, published 2018).)
